The text below walks through data of patent publication US12083109B2, “Neurokinin antagonists and uses thereof” (California Institute of Technology, priority 2017, dated 2024).

The target in experiment [1] is T1, hM3DREADD in Tac2+ neurons (Homo sapiens, UniProt P20309, A239G/Y149C).
T1 construct: host or cells: Tac2+ neurons of group-housed Tac2-Cre mice, transduced in vivo by intravenous AAV-PHP.B-hSyn-DIO-hM3D-mCherry, with or without the Tac2 cDNA virus
Put plainly: Behavioral assays in group housed Tac2-Cre mice, CNO activation (hM3DREADD) with or without Tac2 cDNA. It is filed as in vivo, mouse. On the procedure: The AAV-hSyn-DIO-Tac2-P2A-mCherry, AAV-hSyn-DIO-hM3D-mCherry, and AAV-hSyn-DIO-mCherry recombinant AAV genomes were separately packaged into the AAV-PHP.B capsid by triple transfection of HEK293T cells and purified with iodixanol step gradients as previously described (Deverman et al., 2016; incorporated by reference in its entirety). 5×10^11 vector genomes (vg) of each virus were administered intravenously (via the retro-orbital sinus) to Tac2-Cre animals individually or in combination. To equalize the amount of virus given to each mouse, 5×10^11 vg of AAV-PHP.B-hSyn-DIO-mCherry was administered to each animal to bring the amount of virus up to the amount injected in the double Tac2^+ hM3DREAAD group. Each animal received a total vector dose of 1×10^12 vg.
(§1) Mice were administered the Nk3R antagonist osanetant (Axon Medchem, Axon 1533) either systemically or intra-brain region. Osanctant was dissolved in saline with 0.1% Tween 20 (vehicle). For systemic administration mice received an intraperitoneal (i.p.) injection (5 mg/kg) 20 minutes prior to behavioral testing. For microinfusions, guide cannulas were removed from mice and replaced with injector cannulas (Plastics One), which protruded 0.5 mm from the tip of the guide cannula. Injectors were attached to 5 μl Hamilton syringes with PE tubing (Plastics One) and mounted on a microinfusion pump (Harvard Apparatus) for controlled infusion of osanetant (0.3 μl vehicle with 375 ng dose per site injected over 6 minutes). For experiments using systemic administration of clozapine-N-oxide (CNO), CNO (Enzo Life Sciences-Biomol, BML-NS105-0005) was dissolved in saline (9 g/L NaCl) and injected (i.p.) at 5 mg/kg for hM4DREADD silencing or 2 mg/kg for hM3DREADD activation 20 minutes prior to behavioral testing. CNO was also administered chronically in drinking water (0.5 mg CNO/100 ml water).
These viruses were intravenously injected (individually or in combination) into GH Tac2-Cre mice (FIGS. 14A-T). […]

Experiment [2] addresses T2, Nk3R (Mus musculus, UniProt P47937).
T2 sequence (P47937 1-452): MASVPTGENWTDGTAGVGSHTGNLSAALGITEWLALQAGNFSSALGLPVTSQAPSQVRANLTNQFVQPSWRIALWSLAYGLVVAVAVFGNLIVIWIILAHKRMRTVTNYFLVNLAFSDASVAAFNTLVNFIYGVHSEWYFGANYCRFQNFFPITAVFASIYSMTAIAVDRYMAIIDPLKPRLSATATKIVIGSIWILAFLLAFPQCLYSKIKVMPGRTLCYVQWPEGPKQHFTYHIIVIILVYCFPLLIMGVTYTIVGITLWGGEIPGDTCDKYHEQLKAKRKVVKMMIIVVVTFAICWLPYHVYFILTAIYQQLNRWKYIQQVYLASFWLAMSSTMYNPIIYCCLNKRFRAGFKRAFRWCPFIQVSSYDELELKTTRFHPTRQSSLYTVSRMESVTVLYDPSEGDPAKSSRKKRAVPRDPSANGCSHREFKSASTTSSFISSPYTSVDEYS
Put plainly: Social interaction assay, osanetant. It is filed as in vivo. More on the design: from tissue; host or cells: Living mice (wild-type C57Bl6/N males, Charles River). The settings on record: SIS mice; acute systemic osanetant; listed as Osanetant. On the procedure:
as §1

“Also recorded” adds a separate entry of the source.

T1 sequence (P20309 whole entry Y149C/A239G): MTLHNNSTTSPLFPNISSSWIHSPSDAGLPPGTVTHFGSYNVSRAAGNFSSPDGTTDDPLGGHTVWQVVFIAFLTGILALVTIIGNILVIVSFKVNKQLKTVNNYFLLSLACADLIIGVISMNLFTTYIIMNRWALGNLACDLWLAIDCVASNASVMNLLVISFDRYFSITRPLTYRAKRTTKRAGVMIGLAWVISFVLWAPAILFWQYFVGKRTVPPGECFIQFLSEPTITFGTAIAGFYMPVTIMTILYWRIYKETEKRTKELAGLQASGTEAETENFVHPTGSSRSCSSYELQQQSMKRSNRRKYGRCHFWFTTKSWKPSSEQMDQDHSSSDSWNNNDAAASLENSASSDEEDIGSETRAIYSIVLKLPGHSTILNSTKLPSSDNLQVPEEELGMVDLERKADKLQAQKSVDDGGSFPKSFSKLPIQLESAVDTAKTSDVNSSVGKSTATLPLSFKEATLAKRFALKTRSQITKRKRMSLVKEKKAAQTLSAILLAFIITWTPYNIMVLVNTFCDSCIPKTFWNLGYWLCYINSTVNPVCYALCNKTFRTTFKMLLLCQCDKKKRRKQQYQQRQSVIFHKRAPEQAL

On to `C[N+]1([O-])CCN(C2=Nc3cc(Cl)ccc3Nc3ccccc32)CC1` [CNO, clozapine-N-oxide], for which the “SIS-like behavioral effects (increased aggression, persistent freezing to threats)” value in experiment [1] (group housed Tac2-Cre mice, Tac2 cDNA plus hM3DREADD viruses, CNO in drinking water 2 weeks and 2 mg/kg i.p. before test) was “recapitulated key behavioral effects of SIS”. In addition, the SIS-like behavioral effects entry is recorded as “insufficient” in experiment [1] (group housed Tac2-Cre mice, activation of Tac2+ neurons on its own (hM3DREADD, CNO)) and “No such effects” in experiment [1] (group housed control mice, mCherry-only virus, treated with CNO).
In the case of `CC(=O)N(C)C1(c2ccccc2)CCN(CCC[C@]2(c3ccc(Cl)c(Cl)c3)CCCN(C(=O)c3ccccc3)C2)CC1` [osanetant, N-(1-{3-[(3R)-1-benzoyl-3-(3,4-dichlorophenyl)piperidin-3-yl]propyl}-4-phenylpiperidin-4-yl)-N-methylacetamide], in experiment [2], the “SIS-induced decreased social interaction (time in social zone)” value is “blocked; also recorded: attenuated”.
